Laboratory results taken from patent US10149879B2 (priority 2014, dated 2018).

What was measured:
L6-myotubes = test: Anti-diabetic activity (glucose consumption) in L6-myotubes; assay type: cell-based; design: Anti-diabetic activity (glucose consumption): unit not given here; settings: for Anti-diabetic activity (glucose consumption): L6-myotubes, control 1.00
[1] = test system: SGOT, SGPT, ALP, ACP, LDH; test: Hepato-protective effect (SGOT, SGPT, ALP, ACP, LDH); assay type: in vivo, rats; settings: H.G. animals; standard drug
Description: (§1) Before utilizing the test drug for human consumption the pre-clinical safety and efficacy profile of single plant candidate extract as well as in combined form was conducted following standard norms. The biological property of test formulation was validated in streptozotocin (STZ) induced diabetes animal model which also helped in evaluation of vascular complications caused due to diabetes. The effect of test drug was assessed on glucose levels, insulin level, glycosylated hemoglobin, and pro-inflammatory cytokines, and the most important bio-marker neopterin including various neuro-psychological assessments. The mechanism based study clearly indicated the neopterin decreasing potential of test formulation which exerted neuro-protective activity, better glycemic control, anti-atherosclerotic, anti-inflammatory, anti-oxidant effects in STZ induced diabetes among the animals. Further, its therapeutic activity has also been validated in neurogenic dementia and other cognitive deficits associated with diabetes mellitus. Hepato-Protective Effect of Test Formulation

[2] = test system: streptozotocin (STZ) induced diabetes animal model; test: Urine volume and glyceuira (Benedict reagent); assay type: in vivo, rats; design: key to Glyceuria: (+++) abundant; (++) moderate; (+) mild; (−) complete absence; settings: H.G. animals; standard drug
Description: as §1, with “mellitus.” for “mellitus. Hepato-Protective Effect of Test Formulation”
Urine was collected from each group separately by using animal metabolic cage, volume of urine collected was measured and glucose executed in urine was detected by Benedict reagent. In which 1 ml of urine and 3 ml of B.R. are added and boiled for 5 minute. The change in color was observed as Red (+++), green coloration (++) yellow coloration (+) and unchanged (−).

[3] = test system: streptozotocin (STZ) induced diabetes animal model; test: Anti-hyperglycemic activity, weekly assessment of plasma glucose; assay type: in vivo, rats; settings: H.G. animals, standard drug
Description: as §1, with “mellitus.” for “mellitus. Hepato-Protective Effect of Test Formulation”
Low dose=100 mg/kg; High dose=200 mg/kg

Free Fatty Acid (FFA) = test: Reduction in free fatty acids; assay type: in vivo, rats; settings: H.G. animals; standard drug
Description: as §1, with “Reduction in Free Fatty Acids Following” for “Hepato-Protective Effect of”, “Formulation Treatment Treated with test formulation reported FFA elevation in tissues and plasma of diabetic rats” for “Formulation”

Adiponectin = Adiponectin enhancing property in experimental diabetes; assay type: in vivo, rats; settings: H.G. animals, standard drug
Description: as §1, with “Adiponectin Enhancing Property” for “Hepato-Protective Effect”, “Berberis aristata in Experimental Diabetes” for “Test Formulation”

F,1-6 bisphosphate = test: Regulation of key enzymes in gluconeogenesis: F,1-6 bisphosphate; assay type: in vivo, rats; settings: H.G. animals; standard drug
Description: as §1, with “mellitus.” for “mellitus. Hepato-Protective Effect of Test Formulation”

Adipocyte = test: Reduction in hypertrophy of adipocyte; assay type: in vivo, rats; settings: H.G. animals; standard drug
Description: Before utilizing the test drug for human consumption the pre-clinical safety and efficacy profile of single plant candidate extract as well as in combined form was conducted following standard norms. The biological property of test formulation was validated in streptozotocin (STZ) induced diabetes animal model which also helped in evaluation of vascular complications caused due to diabetes. The effect of test drug was assessed on glucose levels, insulin level, glycosylated hemoglobin, and pro-inflammatory cytokines, and the most important bio-marker neopterin including various neuro-psychological assessments. The mechanism based study clearly indicated the neopterin decreasing potential of test formulation which exerted neuro-protective activity, better glycemic control, anti-atherosclerotic, anti-inflammatory, anti-oxidant effects in STZ induced diabetes among the animals. Further, its therapeutic activity has also been validated in neurogenic dementia and other cognitive deficits associated with diabetes mellitus. Reduction in hypertrophy of Adipocyte on Treated with Test Formulation

Aldose reductase = target: T1, Aldose reductase (Rattus norvegicus, UniProt P07943); test: Aldose reductase activity; assay type: in vivo, rats; settings: H.G. animals; standard drug
T1 construct: from tissue; STZ-induced diabetic animals
Description: Before utilizing the test drug for human consumption the pre-clinical safety and efficacy profile of single plant candidate extract as well as in combined form was conducted following standard norms. […] The effect of test drug was assessed on glucose levels, insulin level, glycosylated hemoglobin, and pro-inflammatory cytokines, and the most important bio-marker neopterin including various neuro-psychological assessments. […] Aldose Reductase Activity and Glycation of Hemoglobin Following Test Formulation Treatment

Row | SMILES | ACP [1] [U/L] | ALP [1] [U/L] | LDH [1] [U/L] | SGOT [1] [U/L] | SGPT [1] [U/L] | Glyceuria [2] | Urine volume [2] [mL] | Plasma glucose ([3]; 7th Day, in mg/dL) | Plasma glucose ([3]; 14th Day, in mg/dL) | Free Fatty Acid (FFA), Heart (Free Fatty Acid (FFA)) | Free Fatty Acid (FFA), Liver (Free Fatty Acid (FFA)) | Free Fatty Acid (FFA), Plasma (Free Fatty Acid (FFA)) [mg/L] | Adiponectin (Adiponectin; 7th day) [pg/mL] | Adiponectin (Adiponectin; 14th Day) [pg/mL] | F,1-6 bisphosphate, Kidney (F,1-6 bisphosphate) | F,1-6 bisphosphate, Liver (F,1-6 bisphosphate) | Adipocyte cell area (Adipocyte) [μm] | further results
1 | COc1ccc2cc3[n+](cc2c1OC)CCc1cc2c(cc1-3)OCO2 [Berberin] | – | – | – | – | – | – | – | – | – | – | – | – | – | – | – | – | – | Anti-diabetic activity (glucose consumption) (L6-myotubes; 1 nM): 1.38 ± 0.08; Anti-diabetic activity (glucose consumption) (L6-myotubes; 5 nM): 1.78 ± 0.08; Anti-diabetic activity (glucose consumption) (L6-myotubes; 25 nM): 1.98 ± 0.08; Anti-diabetic activity (glucose consumption) (L6-myotubes; 125 nM): 2.30 ± 0.08; Anti-diabetic activity (glucose consumption) (L6-myotubes; 625 nM): 2.50 ± 0.10; glucose consumption (L6-myotubes; differentiated L6-myotubes, dose dependent): accelerated glucose consumption
2 | CCc1ccc(CCOc2ccc(CC3SC(=O)NC3=O)cc2)nc1 (stereo not shown) [Pioglitazone] | 11.95 ± 1.00 | 139.50 ± 3.15 | 160.00 ± 15.00 | 72.00 ± 5.71 | 27.00 ± 3.00 | ++ | 13.23 ± 1.18 | 153.83 ± 15.68 | 140.17 ± 6.25 | 379.17 ± 22.06 mg/100 g of tissue | 522.67 ± 37.75 mg/100 g of tissue | 69.00 ± 5.60 | 7.13 ± 2.10 | 8.02 ± 2.01 | 31.78 ± 3.71 μm/min/mg of protein | 44.33 ± 4.29 μm/min/mg of protein | 136.31 ± 13.53 | Plasma glucose ([3]; 0th Day): 170.17 ± 12.55
3 | CN(C)C(=N)N=C(N)N [Metformin] | 12.05 ± 0.68 | 142.00 ± 6.00 | 145.11 ± 15.00 | 60.00 ± 5.00 | 24.25 ± 2.12 | + | 8.95 ± 1.70 | 148.67 ± 8.85 | 118.83 ± 8.75 | 446.83 ± 39.65 mg/100 g of tissue | 777.83 ± 53.14 mg/100 g of tissue | 87.67 ± 7.68 | 6.90 ± 1.87 | 6.11 ± 1.39 | 29.67 ± 5.60 μm/min/mg of protein | 34.59 ± 4.90 μm/min/mg of protein | 146.24 ± 10.85 | Plasma glucose ([3]; 0th Day, in mg/dL): 169.83 ± 10.03; Aldose reductase (Aldose reductase): 2.60 ± 0.75 μM of NADPH oxidized/g of protein
